Like-named read-outs stand apart in the source and are kept apart here. Each block holds one molecule with its values, some of them ahead of it.
What was measured:
Experiment in all cases: biochemical
Set-up in all cases: species or system human cell line lysate
[1] = biological target: Activin receptor type-1 ; ACVR1 ; Q04771 (Homo sapiens, UniProt Q04771)
[2] = biological target: Calcium/calmodulin-dependent protein kinase type II subunit alpha ; CAMK2A ; Q9UQM7 (Homo sapiens, UniProt Q9UQM7)
[3] = biological target: Casein kinase I isoform gamma-1 ; CSNK1G1 ; Q9HCP0 (Homo sapiens, UniProt Q9HCP0)
[4] = biological target: Citron Rho-interacting kinase ; CIT ; O14578 (Homo sapiens, UniProt O14578)
[5] = biological target: Dual specificity testis-specific protein kinase 1 ; TESK1 ; Q15569 (Homo sapiens, UniProt Q15569)
[6] = biological target: Ephrin type-A receptor 5 ; EPHA5 ; P54756 (Homo sapiens, UniProt P54756)
Chain of Ephrin type-A receptor 5 ; EPHA5 ; P54756 (P54756 whole entry): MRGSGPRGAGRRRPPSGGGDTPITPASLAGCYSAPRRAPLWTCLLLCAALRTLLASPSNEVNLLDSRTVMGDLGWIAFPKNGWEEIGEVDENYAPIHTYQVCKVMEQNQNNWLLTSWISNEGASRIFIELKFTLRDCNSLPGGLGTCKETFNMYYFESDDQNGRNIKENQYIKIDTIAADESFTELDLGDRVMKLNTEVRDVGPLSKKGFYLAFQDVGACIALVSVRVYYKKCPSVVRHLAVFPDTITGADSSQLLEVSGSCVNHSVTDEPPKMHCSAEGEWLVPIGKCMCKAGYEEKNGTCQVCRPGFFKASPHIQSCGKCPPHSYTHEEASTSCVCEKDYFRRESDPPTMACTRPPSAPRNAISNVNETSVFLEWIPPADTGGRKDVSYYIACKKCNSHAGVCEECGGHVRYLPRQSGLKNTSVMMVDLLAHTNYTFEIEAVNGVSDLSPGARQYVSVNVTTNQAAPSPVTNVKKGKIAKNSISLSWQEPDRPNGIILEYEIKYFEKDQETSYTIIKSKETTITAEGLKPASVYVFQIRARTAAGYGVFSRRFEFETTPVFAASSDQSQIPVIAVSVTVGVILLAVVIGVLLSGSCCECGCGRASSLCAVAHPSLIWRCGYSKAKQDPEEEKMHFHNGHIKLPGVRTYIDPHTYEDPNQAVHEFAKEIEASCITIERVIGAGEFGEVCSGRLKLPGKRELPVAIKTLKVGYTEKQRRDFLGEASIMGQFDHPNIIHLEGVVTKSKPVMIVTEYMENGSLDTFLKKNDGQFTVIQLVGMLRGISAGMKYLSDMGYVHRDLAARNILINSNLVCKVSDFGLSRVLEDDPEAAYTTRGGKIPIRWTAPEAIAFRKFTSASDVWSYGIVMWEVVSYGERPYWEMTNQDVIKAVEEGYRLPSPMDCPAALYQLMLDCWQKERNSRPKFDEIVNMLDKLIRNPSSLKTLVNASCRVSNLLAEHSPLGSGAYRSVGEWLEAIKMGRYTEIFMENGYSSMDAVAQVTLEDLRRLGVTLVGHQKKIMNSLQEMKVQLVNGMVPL

[7] = biological target: Focal adhesion kinase 1 ; PTK2 ; Q05397 (Homo sapiens, UniProt Q05397)
[8] = biological target: Interleukin-1 receptor-associated kinase 4 ; IRAK4 ; Q9NWZ3 (Homo sapiens, UniProt Q9NWZ3)
[9] = biological target: Isoform 4 of Serine/threonine-protein kinase Nek2 ; NEK2 ; P51955-4 (Homo sapiens, UniProt P51955)
Chain of Isoform 4 of Serine/threonine-protein kinase Nek2 ; NEK2 ; P51955-4 (P51955 whole entry, canonical isoform, one chain of several): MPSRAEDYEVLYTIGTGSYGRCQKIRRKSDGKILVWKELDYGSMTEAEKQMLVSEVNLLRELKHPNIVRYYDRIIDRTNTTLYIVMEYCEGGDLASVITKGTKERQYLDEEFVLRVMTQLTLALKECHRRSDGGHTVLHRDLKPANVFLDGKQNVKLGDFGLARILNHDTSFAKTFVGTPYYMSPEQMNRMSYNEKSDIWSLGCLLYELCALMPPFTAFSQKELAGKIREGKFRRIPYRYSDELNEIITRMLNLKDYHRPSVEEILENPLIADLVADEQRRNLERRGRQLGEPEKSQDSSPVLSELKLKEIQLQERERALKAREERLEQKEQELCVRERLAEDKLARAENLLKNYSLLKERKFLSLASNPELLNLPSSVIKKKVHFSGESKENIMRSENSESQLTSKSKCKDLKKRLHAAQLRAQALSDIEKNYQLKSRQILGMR

[10] = biological target: Isoform 6 of Tyrosine-protein kinase ABL2 ; ABL2 ; P42684-6 (Homo sapiens, UniProt P42684)
Chain of Isoform 6 of Tyrosine-protein kinase ABL2 ; ABL2 ; P42684-6 (P42684 whole entry, canonical isoform): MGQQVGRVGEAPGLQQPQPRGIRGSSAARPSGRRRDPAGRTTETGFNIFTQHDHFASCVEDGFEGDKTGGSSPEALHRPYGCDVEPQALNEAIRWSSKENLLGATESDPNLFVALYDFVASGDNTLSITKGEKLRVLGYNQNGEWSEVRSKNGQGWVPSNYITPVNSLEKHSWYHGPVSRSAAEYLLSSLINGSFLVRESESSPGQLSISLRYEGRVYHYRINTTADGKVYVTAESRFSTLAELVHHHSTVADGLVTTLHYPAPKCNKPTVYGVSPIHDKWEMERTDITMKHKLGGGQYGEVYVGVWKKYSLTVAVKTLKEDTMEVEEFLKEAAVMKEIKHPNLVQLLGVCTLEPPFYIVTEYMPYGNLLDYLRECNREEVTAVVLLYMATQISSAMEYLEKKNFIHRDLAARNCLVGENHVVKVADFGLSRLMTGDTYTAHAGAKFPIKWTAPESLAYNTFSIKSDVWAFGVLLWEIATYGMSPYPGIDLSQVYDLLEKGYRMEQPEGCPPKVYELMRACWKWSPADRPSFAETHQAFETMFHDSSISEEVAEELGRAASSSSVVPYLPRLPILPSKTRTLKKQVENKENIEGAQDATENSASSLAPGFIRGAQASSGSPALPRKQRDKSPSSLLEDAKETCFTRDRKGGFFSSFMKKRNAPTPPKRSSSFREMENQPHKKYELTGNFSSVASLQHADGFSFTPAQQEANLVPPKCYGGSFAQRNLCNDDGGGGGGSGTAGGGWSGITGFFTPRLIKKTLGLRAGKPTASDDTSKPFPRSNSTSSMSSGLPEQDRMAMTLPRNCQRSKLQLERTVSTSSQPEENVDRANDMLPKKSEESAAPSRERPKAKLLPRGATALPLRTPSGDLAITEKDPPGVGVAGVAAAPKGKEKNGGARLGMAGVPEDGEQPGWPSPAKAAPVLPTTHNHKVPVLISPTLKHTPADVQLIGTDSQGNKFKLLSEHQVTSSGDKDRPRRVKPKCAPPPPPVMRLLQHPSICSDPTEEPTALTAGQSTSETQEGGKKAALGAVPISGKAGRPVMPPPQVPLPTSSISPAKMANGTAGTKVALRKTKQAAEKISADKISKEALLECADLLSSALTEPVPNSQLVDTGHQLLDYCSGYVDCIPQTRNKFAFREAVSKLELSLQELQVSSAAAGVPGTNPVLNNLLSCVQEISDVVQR

[11] = biological target: Isoform Beta-II of Protein kinase C beta type ; PRKCB ; P05771-2 (Homo sapiens, UniProt P05771)
Chain of Isoform Beta-II of Protein kinase C beta type ; PRKCB ; P05771-2 (P05771 whole entry, canonical isoform): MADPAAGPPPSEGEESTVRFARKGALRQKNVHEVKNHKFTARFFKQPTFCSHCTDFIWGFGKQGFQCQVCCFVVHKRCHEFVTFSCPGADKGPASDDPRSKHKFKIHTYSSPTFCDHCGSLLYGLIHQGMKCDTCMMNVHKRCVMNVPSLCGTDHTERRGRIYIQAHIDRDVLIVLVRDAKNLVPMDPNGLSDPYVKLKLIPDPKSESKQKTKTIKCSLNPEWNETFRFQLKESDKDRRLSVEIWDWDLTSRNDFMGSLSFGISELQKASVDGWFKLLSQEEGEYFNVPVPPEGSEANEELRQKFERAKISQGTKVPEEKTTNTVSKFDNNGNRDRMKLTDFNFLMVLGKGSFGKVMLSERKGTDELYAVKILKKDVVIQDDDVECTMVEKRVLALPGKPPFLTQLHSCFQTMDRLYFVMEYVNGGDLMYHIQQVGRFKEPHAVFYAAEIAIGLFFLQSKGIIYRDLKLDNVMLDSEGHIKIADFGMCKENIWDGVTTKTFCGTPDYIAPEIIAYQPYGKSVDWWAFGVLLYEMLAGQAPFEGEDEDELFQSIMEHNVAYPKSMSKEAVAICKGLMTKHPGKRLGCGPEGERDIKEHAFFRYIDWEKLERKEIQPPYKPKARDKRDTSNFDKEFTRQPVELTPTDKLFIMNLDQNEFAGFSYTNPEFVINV

[12] = biological target: Isoform Delta 12 of Calcium/calmodulin-dependent protein kinase type I ; CAMK2D ; Q13557-12 (Homo sapiens, UniProt Q13557)
[13] = biological target: Mitogen-activated protein kinase 3 ; MAPK3 ; P27361 (Homo sapiens, UniProt P27361)
Chain of Mitogen-activated protein kinase 3 ; MAPK3 ; P27361 (P27361 whole entry): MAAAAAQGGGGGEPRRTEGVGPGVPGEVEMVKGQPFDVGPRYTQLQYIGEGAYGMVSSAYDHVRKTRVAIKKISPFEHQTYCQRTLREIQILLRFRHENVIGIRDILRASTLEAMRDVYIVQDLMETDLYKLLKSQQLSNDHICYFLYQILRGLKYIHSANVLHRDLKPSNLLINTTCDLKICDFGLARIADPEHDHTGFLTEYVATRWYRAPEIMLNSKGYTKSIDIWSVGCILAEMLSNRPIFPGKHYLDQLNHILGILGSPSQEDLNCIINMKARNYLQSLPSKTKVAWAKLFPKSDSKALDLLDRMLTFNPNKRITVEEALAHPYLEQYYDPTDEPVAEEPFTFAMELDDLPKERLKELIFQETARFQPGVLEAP

[14] = biological target: Nucleoside diphosphate kinase, mitochondrial ; NME4 ; O00746 (Homo sapiens, UniProt O00746)
Chain of Nucleoside diphosphate kinase, mitochondrial ; NME4 ; O00746 (O00746 whole entry): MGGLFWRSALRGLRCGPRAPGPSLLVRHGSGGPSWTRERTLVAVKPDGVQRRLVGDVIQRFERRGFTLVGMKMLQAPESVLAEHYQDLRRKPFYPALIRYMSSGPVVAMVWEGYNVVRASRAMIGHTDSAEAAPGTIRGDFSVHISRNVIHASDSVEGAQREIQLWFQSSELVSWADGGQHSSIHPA

[15] = biological target: Protein kinase C iota type ; PRKCI ; P41743 (Homo sapiens, UniProt P41743)
[16] = biological target: Protein-tyrosine kinase 2-beta ; PTK2B ; Q14289 (Homo sapiens, UniProt Q14289)
[17] = biological target: RAC-gamma serine/threonine-protein kinase ; AKT3 ; Q9Y243 (Homo sapiens, UniProt Q9Y243)
[18] = biological target: Ribosomal protein S6 kinase alpha-4 ; RPS6KA4 ; O75676 (Homo sapiens, UniProt O75676)
[19] = biological target: Serine/threonine-protein kinase N1 ; PKN1 ; Q16512 (Homo sapiens, UniProt Q16512)
[20] = biological target: Serine/threonine-protein kinase PAK 4 ; PAK4 ; O96013 (Homo sapiens, UniProt O96013)
[21] = biological target: Serine/threonine-protein kinase SIK2 ; SIK2 ; Q9H0K1 (Homo sapiens, UniProt Q9H0K1)
[22] = biological target: Tyrosine-protein kinase Fyn ; FYN ; P06241 (Homo sapiens, UniProt P06241)
[23] = biological target: Tyrosine-protein kinase SYK ; SYK ; P43405 (Homo sapiens, UniProt P43405)
[24] = read-out: BAY-1251152 (10 µM) / %Intensity relative to DMSO
[25] = read-out: BAY-1143572 (10 µM) / %Intensity relative to DMSO

Chain of Activin receptor type-1 ; ACVR1 ; Q04771 (Q04771 whole entry): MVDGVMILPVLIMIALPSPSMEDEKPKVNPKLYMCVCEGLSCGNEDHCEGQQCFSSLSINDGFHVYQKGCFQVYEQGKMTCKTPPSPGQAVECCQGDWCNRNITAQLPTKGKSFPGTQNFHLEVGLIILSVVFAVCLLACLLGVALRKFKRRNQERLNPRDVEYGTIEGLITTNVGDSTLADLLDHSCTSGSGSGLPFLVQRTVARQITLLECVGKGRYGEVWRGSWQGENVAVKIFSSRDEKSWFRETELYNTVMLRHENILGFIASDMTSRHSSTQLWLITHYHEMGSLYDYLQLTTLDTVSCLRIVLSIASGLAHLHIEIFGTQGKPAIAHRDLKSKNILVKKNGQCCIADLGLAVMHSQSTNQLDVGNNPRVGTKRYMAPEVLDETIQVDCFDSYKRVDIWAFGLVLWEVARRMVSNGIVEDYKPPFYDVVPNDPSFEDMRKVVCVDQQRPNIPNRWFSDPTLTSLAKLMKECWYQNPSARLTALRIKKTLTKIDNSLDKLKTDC
Chain of Calcium/calmodulin-dependent protein kinase type II subunit alpha ; CAMK2A ; Q9UQM7 (Q9UQM7 whole entry, canonical isoform, one chain of several): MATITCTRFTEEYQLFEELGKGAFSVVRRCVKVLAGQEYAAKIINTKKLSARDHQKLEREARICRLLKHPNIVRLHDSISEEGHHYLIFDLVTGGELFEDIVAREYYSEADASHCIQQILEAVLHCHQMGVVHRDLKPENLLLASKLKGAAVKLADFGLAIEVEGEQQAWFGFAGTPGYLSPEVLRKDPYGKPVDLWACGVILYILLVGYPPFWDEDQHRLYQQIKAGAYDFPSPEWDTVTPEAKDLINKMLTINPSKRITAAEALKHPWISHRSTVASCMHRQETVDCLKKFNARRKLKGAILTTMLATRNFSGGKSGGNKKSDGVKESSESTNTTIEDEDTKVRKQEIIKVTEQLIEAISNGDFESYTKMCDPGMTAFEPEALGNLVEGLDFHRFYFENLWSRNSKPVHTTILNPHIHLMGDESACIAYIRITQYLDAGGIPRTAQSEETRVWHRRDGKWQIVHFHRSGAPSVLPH

remaining activity at 10 µM [1, 24]: 99.3%
remaining activity at 10 µM [2, 24]: 115%
remaining activity at 10 µM [3, 24]: 163%
remaining activity at 10 µM [4, 24]: 92.5%
remaining activity at 10 µM [5, 24]: 104%
remaining activity at 10 µM [6, 24]: 109%
remaining activity at 10 µM [7, 24]: 99.3%
remaining activity at 10 µM [8, 24]: 112%
remaining activity at 10 µM [9, 24]: 114%
remaining activity at 10 µM [10, 24]: 69.2%
remaining activity at 10 µM [11, 24]: 119%
remaining activity at 10 µM [12, 24]: 106%
remaining activity at 10 µM [13, 24]: 96.8%
remaining activity at 10 µM [14, 24]: 94.8%
remaining activity at 10 µM [15, 24]: 99.3%
remaining activity at 10 µM [16, 24]: 176%
remaining activity at 10 µM [17, 24]: 127%
remaining activity at 10 µM [18, 24]: 104%
remaining activity at 10 µM [19, 24]: 137%
remaining activity at 10 µM [20, 24]: 110%
remaining activity at 10 µM [21, 24]: 106%
remaining activity at 10 µM [22, 24]: 103%
remaining activity at 10 µM [23, 24]: 94%
Compound: COc1cc(F)ccc1-c1cc(Nc2cc(CS(C)(=N)=O)ccn2)ncc1F (stereo not shown) [BAY-1251152]

remaining activity at 10 µM [1, 25]: 87.7%
remaining activity at 10 µM [2, 25]: 130%
remaining activity at 10 µM [3, 25]: 175%
remaining activity at 10 µM [4, 25]: 99.8%
remaining activity at 10 µM [5, 25]: 109%
remaining activity at 10 µM [6, 25]: 99.7%
remaining activity at 10 µM [7, 25]: 102%
remaining activity at 10 µM [8, 25]: 121%
remaining activity at 10 µM [9, 25]: 115%
remaining activity at 10 µM [10, 25]: 59.1%
remaining activity at 10 µM [11, 25]: 121%
remaining activity at 10 µM [12, 25]: 124%
remaining activity at 10 µM [13, 25]: 104%
remaining activity at 10 µM [14, 25]: 79.4%
remaining activity at 10 µM [15, 25]: 108%
remaining activity at 10 µM [16, 25]: 217%
remaining activity at 10 µM [17, 25]: 125%
remaining activity at 10 µM [18, 25]: 119%
remaining activity at 10 µM [19, 25]: 156%
remaining activity at 10 µM [20, 25]: 105%
remaining activity at 10 µM [21, 25]: 102%
remaining activity at 10 µM [22, 25]: 92.2%
remaining activity at 10 µM [23, 25]: 106%
Compound: COc1cc(F)ccc1-c1ncnc(Nc2cccc(C[S@](C)(=N)=O)c2)n1 [BAY-1143572]

Reference: article doi:10.1101/2024.08.13.607785v1 (biorxiv, 2024)
